Results as given in US20040081655A1, “Methods and compositions comprising polycationic compounds” (priority 2001, published 2004).
“Also recorded” adds a separate entry of the source.

Legend:
TNF-α and IL-6 = assay: CpG-ODN-induced systemic production of TNF-α and IL-6 in vivo, serum ELISA (Example 4); set-up: species or system Mice C57Bl/6; details: for production of IL-6 in serum after injection / production of TNF-α in serum after injection: one hour after injection into hind footpads, ELISA
Experimental: (§1) Mice were injected into each hind footpad with a total volume of 100 μl (50 μl per footpad), containing the above mentioned compounds. One hour after injection blood was taken from the tail-vein and serum was prepared. The amount of the pro-inflammatory cytokines TNF-α and IL-6 in the sera was determined by cytokine-specific ELISAs according to the manufacturer's instructions (R&D Systems, Inc., Minneapolis, Minn.).

CD11c+ sorted BM-DC [1] = assay: CpG-ODN-induced production of TNF-α and IL-6 by murine BM-DC in vitro, KLK (Example 7); type: cell-based, C57B1/6 mice; details: 24 h; for production of IL-6 by murine BM-DC / production of TNF-a by murine BM-DC: substance alone (KLK 16, 8 μg/ml; CpG-ODN 1668 0.5 nmol/ml), supernatant ELISA
Experimental: (§2) Murine dendritic cells (DC) were generated from bone-marrow precursor cells of C57Bl/6 mice as previously described (Inaba 1992). Briefly, bone marrow cells were obtained by flushing the femurs and tibias with medium. Cells were depleted of lymphocytes, granulocytes and MHC class II^+cells by Ab-complement-mediated lysis. Dead cells were removed by Ficoll gradient (Ficoll Separating Solution, density […]; Biochrom KG, Germany). The remaining cells (1×10^6/ml) were cultured in 24-well culture plates in high glucose DMEM medium (PAA Laboratories GmbH, Linz, Austria; E 15-009) supplemented with 10% heat-inactivated FCS, 10. mM sodium pyruvate, 2 mM L-glutamine, […] gentamicin, 0.5 mM 2-mercaptoethanol (all supplements from PAA Laboratories GmbH, Linz, Austria), 20 ng/ml GM-CSF and 250 U/ml IL-4. On day 3 of culture, cells were fed with fresh medium. On day 6 of culture, non-adherent cells and loosely adherent aggregates were harvested, washed and re-plated in 6-well culture plates (2×10^6/5 ml). After additional 1 day of culture, non-adherent cells were collected for analyses. […] For in vitro-stimulations, day 7-cultured bone marrow cells were further enriched for CD11c^+ cells (=DC) using magnetic beads (Miltenyi, Bergisch-Gladbach, Germany). The purity of BM-DC was more than 95% as determined by flow cytometry analyses. […] Supernatants were harvested after 24 h and analysed for the production of TNF-α and IL-6 using specific ELISAs.
Murine dendritic cells (DC) were generated from bone-marrow precursor cells of C57B1/6 mice as described in example 5.

human dendritic cells = assay: LPS-induced production of pro-inflammatory cytokines by human dendritic cells in vitro (Example 10); details: for LPS-induced production of pro-inflammatory cytokines by human dendritic cells: in vitro, mode of incubation not specified; for production of IL-6 by human dendritic cells / production of TNF-a by human dendritic cells: substance alone (LPS 5 ng/ml; pR60 10 μg/ml; KLK 16, 8 μg/ml; pK 10 μg/ml), culture medium 12 h then substance 12 h
Experimental: Human DC were generated from monocytes. Briefly, peripheral blood leukocytes (PBLs) were isolated from buffy coats of healthy volunteers by Ficoll gradient centrifugation. Monocytes were isolated from PBLs using CD14-coated magnetic beads (Miltenyi Biotec Inc., Germany) applied according to the manufacturer's instructions. Using this method, we obtained >95% CD14^+ cells as determined by flow cytometry. These CD14^+ monocytes were cultured in RPMI 1640 medium supplemented with 10% FCS (PAA Laboratories, Linz, Austria), non-essential aminoacids, L-glutamin, gentamicin, sodium pyruvate, 100 ng/ml human GM-CSF and 500 U/ml human IL-4 in 6-well tissue plates for 6-7 days. To this end, the cultures contained >80%. MHC class II^+/CD1a^+ cells (=DC).
Human dendritic cells (DC) were generated as described in example 6. For in vitro-stimulations, day 7-cultured dendritic cells were incubated for 12 h with the indicated compounds. After centrifugation, supernatant was removed, cells were washed once with medium, then fresh medium with the indicated compounds was added, and the cells were incubated for additional 12 h. Supernatants were harvested and analyzed for the production of TNF-a and IL-6 using specific ELISAs.

CD11c+ sorted BM-DC [2] = assay: CpG-ODN-induced production of TNF-α and IL-6 by murine BM-DC in vitro, poly-L-arginine (Example 5); type: cell-based, C57Bl/6 mice; details: 24 h; for production of IL-6 by murine BM-DC / production of TNF-α by murine BM-DC: substance alone (poly-L-arginine 10 μg/ml; CpG-ODN 1668 1 nmol/ml), supernatant ELISA
Experimental: as §2

[3] = test system: human monocyte-derived DC; assay: Poly I:C-induced production of pro-inflammatory cytokines by human DC in vitro (Example 6); type: cell-based; details: for poly I:C-induced production of pro-inflammatory cytokines by human DC: poly I:C and pR60 together, in vitro; for production of IL-6 by human DC / production of TNF-α by human DC / production of IL-12/p70 by human DC: substance alone, 10 μg/ml, supernatant ELISA
Experimental: Human DC were generated from monocytes.
To determine, which cytokines are induced/produced by DC upon poly I:C and/or pR stimulation, DC were incubated with different stimuli for 12 and 24 hours, supernatants were harvested, stored at −20° C. and screened for the presence of respective cytokines by specific ELISAs.

TNF-a and IL-6 = assay: BCG/CpG-ODN-induced systemic production of TNF-a and IL-6 in vivo, serum ELISA (Example 8); set-up: species or system Mice C57Bl/6
Experimental: as §1, with “injected subcutaneously” for “injected”, “the flank” for “each hind footpad”, “μl,” for “μl (50 μl per footpad),”, “TNF-a” for “TNF-α”

[4] = test system: murine bone-marrow-derived dendritic cells; assay: LPS-induced production of pro-inflammatory cytokines by murine bone-marrow-derived dendritic cells in vitro (Example 9); type: cell-based, C57Bl/6 mice
Experimental: Murine dendritic cells (DC) were generated from bone-marrow precursor cells of C57Bl/6 mice as previously described (Inaba 1992). Briefly, bone marrow cells were obtained by flushing the femurs and tibias with medium. Cells were depleted of lymphocytes, granulocytes and MHC class II^+cells by Ab-complement-mediated lysis. Dead cells were removed by Ficoll gradient (Ficoll Separating Solution, density […]; Biochrom KG, Germany). The remaining cells (1×10^6/ml) were cultured in 24-well culture plates in high glucose DMEM medium (PAA Laboratories GmbH, Linz, Austria; E 15-009) supplemented with 10% heat-inactivated FCS, 10. mM sodium pyruvate, 2 mM L-glutamine, […] gentamicin, 0.5 mM 2-mercaptoethanol (all supplements from PAA Laboratories GmbH, Linz, Austria), 20 ng/ml GM-CSF and 250 U/ml IL-4. On day 3 of culture, cells were fed with fresh medium. On day 6 of culture, non-adherent cells and loosely adherent aggregates were harvested, washed and re-plated in 6-well culture plates (2×10^6/5 ml). After additional 1 day of culture, non-adherent cells were collected for analyses. […] For in vitro-stimulations, day 7-cultured bone marrow cells were further enriched for CD11c^+ cells (=DC) using magnetic beads (Miltenyi, Bergisch-Gladbach, Germany). The purity of BM-DC was more than 95% as determined by flow cytometry analyses.
Murine dendritic cells (DC) were generated from bone-marrow precursor cells of C57Bl/6 mice as described in example 5.

[5] = mixture of CpG-ODN 1668 (0.5 nmol/ml) and KLK (16, 8 μg/ml)
[6] = cells pre-incubated with polycationic compound 12 h, then LPS 12 h
[7] = mixture of LPS and polycationic compound, 12 h
[8] = poly-L-arginine co-injected with OVA257-264-peptide and CpG-ODN, serum one hour after injection
[9] = mixture of CpG-ODN 1668 (1 nmol/ml) and poly-L-arginine (10 μg/ml)
[10] = mixture of pIC (10 μg/ml) and pR (10 μg/ml), 12 and 24 hours
[11] = BCG vaccine and CpG-ODN co-injected with poly-L-arginine, serum one hour after injection
[12] = cells pre-incubated with poly-L-arginine 12 h, then LPS 12 h
[13] = mixture of LPS/poly-L-arginine, 12 h
[14] = substance alone (LPS 10 ng/ml; pR60 10 μg/ml), culture medium 12 h then substance 12 h
[15] = one hour after s.c. injection into the flank, ELISA

Row | Molecule | production of IL-6 by murine BM-DC (CD11c+ sorted BM-DC [1]) | production of TNF-a by murine BM-DC (CD11c+ sorted BM-DC [1]) | LPS-induced production of IL-6 by human dendritic cells (human dendritic cells; [6]) | LPS-induced production of TNF-a by human dendritic cells (human dendritic cells; [6]) | LPS-induced production of pro-inflammatory cytokines by human dendritic cells (human dendritic cells) | LPS-induced production of IL-6 by human dendritic cells (human dendritic cells; [7]) | LPS-induced production of TNF-a by human dendritic cells (human dendritic cells; [7]) | production of IL-6 by human dendritic cells (human dendritic cells) | production of TNF-a by human dendritic cells (human dendritic cells) | production of IL-6 by human DC ([3]; 12 and 24 hours) | production of TNF-α by human DC ([3]; 12 and 24 hours) | production of IL-12/p70 by human DC [3] | also measured
1 | CC[C@H](C)[C@H](NC(=O)[C@@H](NC(=O)[C@@H](N)CO)[C@@H](C)CC)C(=O)N[C@@H](CC(N)=O)C(=O)N[C@@H](Cc1ccccc1)C(=O)N[C@@H](CCC(=O)O)C(=O)N[C@@H](CCCCN)C(=O)N[C@@H](CC(C)C)C(=O)O [OVA257-264, reference compound] |  |  |  |  |  |  |  |  |  |  |  |  | production of IL-6 in serum after injection (TNF-α and IL-6): does not-induce the production of detectable amounts; production of TNF-α in serum after injection (TNF-α and IL-6): does not-induce the production of detectable amounts; production of IL-6 in serum after injection (TNF-α and IL-6; listed as OVA257-264-peptide): neither the injection of OVA257-264-peptide alone nor in combination with poly-L-arginine led to the induction of significant amounts; production of TNF-α in serum after injection (TNF-α and IL-6; listed as OVA257-264-peptide): neither the injection of OVA257-264-peptide alone nor in combination with poly-L-arginine led to the induction of significant amounts
2 | KLKLLLLLKLK | could not detect any | could not detect any | inhibited | inhibited | decrease | inhibited | inhibited | could not detect any | could not detect any |  |  |  | CpG-ODN 1668-induced production of IL-6 by murine BM-DC (CD11c+ sorted BM-DC [1]; [5]): inhibited; also recorded: abrogates; CpG-ODN 1668-induced production of TNF-a by murine BM-DC (CD11c+ sorted BM-DC [1]; [5]): inhibited; also recorded: abrogates
3 | Poly-D-lysine Hydrobromide |  |  | inhibited | inhibited | decrease | inhibited | inhibited | could not detect any | could not detect any |  |  |  | 
4 | Poly-L-Arginine |  |  | inhibited | inhibited | decrease | inhibited | inhibited | could not detect any | could not detect any | could not detect any | could not detect any | could not detect any | CpG-ODN-induced systemic production of IL-6 (TNF-α and IL-6; [8]): inhibited; also recorded: prevents; also recorded: totally abolished; CpG-ODN-induced systemic production of TNF-α (TNF-α and IL-6; [8]): inhibited; also recorded: prevents; also recorded: totally abolished; CpG-ODN 1668-induced production of IL-6 by murine BM-DC (CD11c+ sorted BM-DC [2]; [9]): inhibited; also recorded: abrogates; CpG-ODN 1668-induced production of TNF-α by murine BM-DC (CD11c+ sorted BM-DC [2]; [9]): inhibited; also recorded: abrogates; production of IL-6 by murine BM-DC (CD11c+ sorted BM-DC [2]): could not detect any; also recorded: neither TNF-α nor IL-6 were detectable; production of TNF-α by murine BM-DC (CD11c+ sorted BM-DC [2]): could not detect any; also recorded: neither TNF-α nor IL-6 were detectable; poly I:C-induced IL-6 production by human DC [3, 10]: inhibited; poly I:C-induced TNF-α production by human DC [3, 10]: inhibited; poly I:C-induced production of pro-inflammatory cytokines by human DC [3]: abrogates; also recorded: inhibits; poly I:C-induced production of pro-inflammatory cytokines by human DC ([3]; listed as pR): can be inhibited; BCG/CpG-ODN-induced systemic production of IL-6 (TNF-a and IL-6; [11]): inhibited; also recorded: prevents; BCG/CpG-ODN-induced systemic production of TNF-a (TNF-a and IL-6; [11]): inhibited; also recorded: prevents; LPS-induced production of IL-6 by murine BM-DC [4, 12]: inhibited; LPS-induced production of TNF-a by murine BM-DC [4, 12]: inhibited; LPS-induced production of pro-inflammatory cytokines by murine bone-marrow-derived dendritic cells ([4]; in vitro, mode of incubation not specified): decrease; LPS-induced production of IL-6 by murine BM-DC [4, 13]: inhibited; LPS-induced production of TNF-a by murine BM-DC [4, 13]: inhibited; production of IL-6 by murine BM-DC [4, 14]: could not detect any; production of TNF-a by murine BM-DC [4, 14]: could not detect any
5 | Polyinosinic-polycytidylic acid [poly I:C, reference compound] |  |  |  |  |  |  |  |  |  | triggers the production | triggers the production | produced IL-12/p70 | 
6 | tcc atg acg ttc ctg atg ct (TCCATGACGTTCCTGATGCT; chemistry not given here) [CpG-ODN 1668, phosphothioate-modified oligodinucleotides containing a CpG-motif, reference compound] | induces the production | induces the production |  |  |  |  |  |  |  |  |  |  | production of IL-6 by murine BM-DC (CD11c+ sorted BM-DC [2]; listed as CPG-ODN 1668): induces the production; production of TNF-α by murine BM-DC (CD11c+ sorted BM-DC [2]; listed as CPG-ODN 1668): induces the production; production of IL-6 by murine BM-DC (CD11c+ sorted BM-DC [2]; listed as CpG-ODN): significant amounts of both cytokines are produced; production of TNF-α by murine BM-DC (CD11c+ sorted BM-DC [2]; listed as CpG-ODN): significant amounts of both cytokines are produced; production of IL-6 in serum after injection (TNF-a and IL-6; [15]): induces the systemic production; production of TNF-a in serum after injection (TNF-a and IL-6; [15]): induces the systemic production
